Like-named read-outs stand apart in the source and are kept apart here.
How the values were obtained:
[1] = Pharmacokinetics following single administration in SD rat; parameters: species or system SD rats; settings: in vivo, sc, 50 nmol/kg
Description: The compound is administrated to male SD rats (230-268 g, n=3) at a dose of 50.0 nmol/kg (s.c.) or 25.0 nmol/kg (i.v.). […] 30.0 μL of thawed plasma sample is taken. 150 μL of acetonitrile solution (containing 5 ng mL^−1 Verapamil, 50 ng·mL^−1 Glibenclamide, 200 ng·mL^−1 Tolbutamide and 200 ng·mL^−1 Diclofenac) are added to precipitate protein. The mixture is vortexed for 5 minutes, and centrifuged at 3700 rpm for 8 minutes. 70.0 μL of the supernatant is taken, into which 70.0 μL of 0.5% aqueous formic acid solution is added. The mixture is vortexed for 5 minutes. 15 μL of the mixture solution is sampled and injected into the LC-MS/MS to determine the drug concentration in plasma. 20.0 μL of thawed plasma sample is taken. 60 μL of acetonitrile solution (containing 5 ng mL^−1 Verapamil, 50 ng·mL^−1 Glibenclamide, 200 ng·mL^−1 Tolbutamide and 200 ng·mL^−1 Diclofenac) are added to precipitate protein. […] The mixture is vortexed for 10 minutes. 10.0 μL of the mixture solution is sampled and injected into the LC-MS/MS to determine the drug concentration in plasma. 30.0 μL of thawed plasma sample is taken. 150 μL of acetonitrile solution (containing 5 ng mL^−1 Verapamil, 50 ng mL^−1 Glibenclamide, 200 ng·mL^−1 Tolbutamide and 200 ng·mL^−1 Diclofenac) are added to precipitate protein. The mixture is vortexed for 5 minutes, and centrifuged at 3700 rpm for 8 minutes. 70.0 μL of the supernatant is taken, into which 70.0 μL of 0.5% aqueous formic acid solution is added. The mixture is vortexed for 5 minutes. 10.0 μL of the mixture solution is sampled and injected into the LC-MS/MS to determine the drug concentration in plasma.

[2] = Pharmacokinetics in cynomolgus monkeys; settings: cynomolgus monkey, in vivo, sc, 25 nmol/kg
Description: After subcutaneous or intravenous administration to cynomolgus monkeys, plasma is collected and the drug concentration in plasma is determined to illustrate the in vivo pharmacokinetic properties of the compound according to the present invention. The compound is dissolved in 1.4% PG in 8 mM Na2HPO4 Buffer (pH 7.39), and filtered through a filter membrane (PTFE, 0.45 μm) to obtain 25 and 12.5 nmol/mL solution of the compound respectively. The obtained solutions are administered to cynomolgus monkeys (4-8 kg) at a dose of 25 nmol/kg subcutaneously (s.c.) or 12.5 nmol/kg intravenously (i.v.). […] The blood samples are centrifuged at 2200 g for 10 minutes to obtain a plasma, which is stored at −90° C. to −60° C. for further analysis and assay.
70.0 μL of thawed plasma sample is taken. 70 μL of acetonitrile (containing 1 ng/ml of the internal standard) is added to precipitate protein. The mixture is vortexed for 1 minute, and centrifuged at 14000 rpm for 10 minutes. 60.0 μL of the supernatant is taken, into which 60.0 μL of 0.5% aqueous formic acid solution is added. The mixture is vortexed for 5 minutes. 10 μL of the mixture solution is sampled and injected into the LC-MS/MS to determine the drug concentration in plasma.
Based on the drug concentration in plasma of the compounds in the cynomolgus monkeys, the pharmacokinetic parameters are calculated by applying the software Winnolin 8.2 in a non-compartmental model, and the results are shown in Table 9 and Table 10 below.

[3] = Pharmacokinetics in C57 mice; settings: mouse, in vivo
Description: After subcutaneous or intravenous administration to C57 mice, plasma is collected and the drug concentration in plasma is determined to illustrate the in vivo pharmacokinetic properties of the compound according to the present invention. […] 20.0 μL of thawed plasma sample is taken. 20 μL of 50% aqueous methanol solution (containing 100 ng mL^−1 internal standard) and 60 μL of acetonitrile are added sequentially to precipitate protein. The mixture is vortexed for 5 minutes, and centrifuged at 3700 rpm for 8 minutes. 50.0 μL of the supernatant is taken, into which 50.0 μL of 0.5% aqueous formic acid solution is added. The mixture is vortexed for 5 minutes. 50 μL of the mixture solution is sampled and injected into the LC-MS/MS to determine the drug concentration in plasma.

[4] = assay type: in vivo; settings: rat, in vivo, male SD rats
Description: (§1) 77 SD male rats (SPF grade) are selected and randomly divided into 10 groups based on body weight. Group 1 is the vehicle control group, including 5 animals. […] Group 5 to Group 7 are the groups administrated with the test substance 1; and Group 8 to Group 10 are the groups administrated with the test substance 2, each group including 8 animals, wherein 5 animals for primary test, and 3 animals for toxicokinetics test, and the administration dose is 1, 3 and 10 mg/kg respectively. Each of the above groups is continuously administered twice a week for 2 weeks (administrating at Day 1, Day 5, Day 8, Day 12 and Day 15).
(§2) During the experiment, the cage condition monitoring, detailed clinical observations, determination of the food consumption, determination of body weight, measurement of the blood biochemical and hematology indicator, investigation of the gross anatomy, weighing of the organ, studying on toxicokinetic are performed on all the groups of the animals.
(§3) Original data during each time period is tabulated. The average values and standard deviations and/or group change are calculated for each assay endpoint based on the group and sex. For each endpoint, the administrated group will be compared with the control group in the following aspect. A logarithmic conversion is performed to the endpoint data as desired prior to the start of the specific analyses.

[5] = test system: SD male rats; assay type: in vivo
Description: as §1, §2, §3

Row | Compound | MRT inf [1] [h] | MRT last [1] [h] | MRT inf [2] [h] | MRT last [2] [h] | MRT inf ([3]; iv) [h] | MRT last ([3]; iv) [h] | MRT inf ([3]; sc) [h] | MRT last ([3]; sc) [h] | MTD ([4]; MTD for 2 weeks, twice a week) [µmol/kg] | MTD ([4]; continuously administered twice a week for 2 weeks) [mg/kg] | Toxicokinetic: Cmax and AUC versus dose ([5]; male SD rats, 1, 3, 10 mg/kg) | Toxicokinetic: accumulation ([5]; male SD rats, continuously administered twice a week for 2 weeks) | Safety Window (based on dosage) ([5]; rat MTD for 2 weeks vs efficacy dose in db/db mice) | Safety Window (based on exposure AUClast) ([5]; rat, in vivo) | dose at which decrease of the body weight is observed after the first administration ([5]; rat, in vivo) [mg/kg]
1 | CC[C@H](C)[C@H](NC(=O)C(C)(C)NC(=O)[C@H](Cc1ccc(O)cc1)NC(=O)[C@H](CC(=O)O)NC(=O)[C@H](CO)NC(=O)[C@@H](NC(=O)C(C)(Cc1ccccc1)NC(=O)[C@@H](NC(=O)CNC(=O)[C@H](CCC(=O)O)NC(=O)C(C)(C)NC(=O)[C@@H](N)Cc1ccc(O)cc1)[C@@H](C)O)[C@@H](C)O)C(=O)NC(C)(C)C(=O)N[C@@H](CC(C)C)C(=O)N[C@@H](CC(=O)O)C(=O)N[C@@H](CCCCN)C(=O)N[C@@H](CCC(N)=O)C(=O)N[C@@H](C)C(=O)N[C@@H](CCC(N)=O)C(=O)N[C@@H](C)C(=O)N[C@@H](CCC(=O)O)C(=O)N[C@@H](Cc1ccccc1)C(=O)N[C@H](C(=O)N[C@@H](CCCCN)C(=O)N[C@@H](Cc1c[nH]c2ccccc12)C(=O)N[C@@H](CC(C)C)C(=O)N[C@@H](CC(C)C)C(=O)N[C@@H](CCCCNC(=O)COCCOCCNC(=O)COCCOCCNC(=O)CC[C@H](NC(=O)CCCCCCCCCCCCCCCCCCCCC(=O)O)C(=O)O)C(=O)NCC(=O)NCC(=O)N1CCC[C@H]1C(=O)N[C@@H](CO)C(=O)N[C@@H](CO)C(=O)NCC(=O)N[C@@H](C)C(=O)N1CCC[C@H]1C(=O)N1CCC[C@H]1C(=O)N1CCC[C@H]1C(=O)N[C@@H](CO)C(=O)N[C@@H](CCCCN)C(N)=O)C(C)C (stereo partly drawn) [P017] | 36.9 ± 3.46 | 27.9 ± 2.99 | 77.8 ± 12.2 | 76.4 ± 12.7 |  |  |  |  |  |  |  |  |  |  | 
2 | CC[C@H](C)[C@H](NC(=O)C(C)(C)NC(=O)[C@H](Cc1ccc(O)cc1)NC(=O)[C@H](CC(=O)O)NC(=O)[C@H](CO)NC(=O)[C@@H](NC(=O)C(C)(Cc1ccccc1)NC(=O)[C@@H](NC(=O)CNC(=O)[C@H](CCC(=O)O)NC(=O)C(C)(C)NC(=O)[C@@H](N)Cc1ccc(O)cc1)[C@@H](C)O)[C@@H](C)O)C(=O)NC(C)(C)C(=O)N[C@@H](CC(C)C)C(=O)N[C@@H](CC(=O)O)C(=O)N[C@@H](CCCCN)C(=O)N[C@@H](CCC(N)=O)C(=O)N[C@@H](C)C(=O)N[C@@H](CCC(N)=O)C(=O)N[C@@H](C)C(=O)N[C@@H](CCC(=O)O)C(=O)N[C@@H](Cc1ccccc1)C(=O)N[C@H](C(=O)N[C@@H](CCCCN)C(=O)N[C@@H](Cc1c[nH]c2ccccc12)C(=O)N[C@@H](CC(C)C)C(=O)N[C@@H](CC(C)C)C(=O)N[C@@H](CCCCNC(=O)COCCOCCNC(=O)COCCOCCNC(=O)COCCOCCNC(=O)CC[C@H](NC(=O)CCCCCCCCCCCCCCCCCCCCC(=O)O)C(=O)O)C(=O)NCC(=O)NCC(=O)N1CCC[C@H]1C(=O)N[C@@H](CO)C(=O)N[C@@H](CO)C(=O)NCC(=O)N[C@@H](C)C(=O)N1CCC[C@H]1C(=O)N1CCC[C@H]1C(=O)N1CCC[C@H]1C(=O)N[C@@H](CO)C(=O)N[C@@H](CCCCN)C(N)=O)C(C)C (stereo partly drawn) [P020] | 37.1 ± 0.636 | 29.5 ± 4.68 | 103 ± 13.1 | 97.5 ± 9.67 | 21.8 | 16.8 | 29.4 | 21.8 |  |  |  |  |  |  | 
3 | CC[C@H](C)[C@H](NC(=O)C(C)(C)NC(=O)[C@H](Cc1ccc(O)cc1)NC(=O)[C@H](CC(=O)O)NC(=O)[C@H](CO)NC(=O)[C@@H](NC(=O)C(C)(Cc1ccccc1)NC(=O)[C@@H](NC(=O)CNC(=O)[C@H](CCC(=O)O)NC(=O)C(C)(C)NC(=O)[C@@H](N)Cc1ccc(O)cc1)[C@@H](C)O)[C@@H](C)O)C(=O)NC(C)(C)C(=O)N[C@@H](CC(C)C)C(=O)N[C@@H](CC(=O)O)C(=O)N[C@@H](CCCCN)C(=O)N[C@@H](CCC(N)=O)C(=O)N[C@@H](C)C(=O)N[C@@H](CCC(N)=O)C(=O)N[C@@H](C)C(=O)N[C@@H](CCC(=O)O)C(=O)N[C@@H](Cc1ccccc1)C(=O)N[C@H](C(=O)N[C@@H](CCCCNC(=O)COCCOCCNC(=O)COCCOCCNC(=O)CC[C@H](NC(=O)CCCCCCCCCCCCCCCCCCCCC(=O)O)C(=O)O)C(=O)N[C@@H](Cc1c[nH]c2ccccc12)C(=O)N[C@@H](CC(C)C)C(=O)N[C@@H](CC(C)C)C(=O)N[C@@H](CCCCN)C(=O)NCC(=O)NCC(=O)N1CCC[C@H]1C(=O)N[C@@H](CO)C(=O)N[C@@H](CO)C(=O)NCC(=O)N[C@@H](C)C(=O)N1CCC[C@H]1C(=O)N1CCC[C@H]1C(=O)N1CCC[C@H]1C(=O)N[C@@H](CO)C(=O)N[C@@H](CCCCN)C(N)=O)C(C)C (stereo partly drawn) [P014] | 30 ± 1.01 | 26.2 ± 0.781 | 77.4 ± 13.5 | 74.2 ± 13.8 | 19.2 | 15.7 | 30.3 | 22.9 | 1.98 | > 10 | increase nearly proportionally to the dose | no substantial accumulation | 1319 | 596 | ≥ 1

Source: patent publication US12589158B2 (priority 2022, dated 2026)
